# From patent US6677450B2, “Topoisomerase inhibitors” (Bristol-Myers Squibb Company, priority 2000, dated 2004)
# How the values were obtained:
# [1] = biological target: T1, purified human topoisomerase I (Homo sapiens, UniProt P11387); test: Topoisomerase I activity (in vitro): compound-induced, topoisomerase I-mediated single strand breaks in PM2 DNA; type: biochemical; settings: 30 minutes at 37° C., agarose gel densitometry, read-out: EC50 (median effective concentration for inducing topoisomerase I-mediated single strand breaks in DNA)
# T1 construct: purchased Topogen
# T1 sequence (P11387 1-765): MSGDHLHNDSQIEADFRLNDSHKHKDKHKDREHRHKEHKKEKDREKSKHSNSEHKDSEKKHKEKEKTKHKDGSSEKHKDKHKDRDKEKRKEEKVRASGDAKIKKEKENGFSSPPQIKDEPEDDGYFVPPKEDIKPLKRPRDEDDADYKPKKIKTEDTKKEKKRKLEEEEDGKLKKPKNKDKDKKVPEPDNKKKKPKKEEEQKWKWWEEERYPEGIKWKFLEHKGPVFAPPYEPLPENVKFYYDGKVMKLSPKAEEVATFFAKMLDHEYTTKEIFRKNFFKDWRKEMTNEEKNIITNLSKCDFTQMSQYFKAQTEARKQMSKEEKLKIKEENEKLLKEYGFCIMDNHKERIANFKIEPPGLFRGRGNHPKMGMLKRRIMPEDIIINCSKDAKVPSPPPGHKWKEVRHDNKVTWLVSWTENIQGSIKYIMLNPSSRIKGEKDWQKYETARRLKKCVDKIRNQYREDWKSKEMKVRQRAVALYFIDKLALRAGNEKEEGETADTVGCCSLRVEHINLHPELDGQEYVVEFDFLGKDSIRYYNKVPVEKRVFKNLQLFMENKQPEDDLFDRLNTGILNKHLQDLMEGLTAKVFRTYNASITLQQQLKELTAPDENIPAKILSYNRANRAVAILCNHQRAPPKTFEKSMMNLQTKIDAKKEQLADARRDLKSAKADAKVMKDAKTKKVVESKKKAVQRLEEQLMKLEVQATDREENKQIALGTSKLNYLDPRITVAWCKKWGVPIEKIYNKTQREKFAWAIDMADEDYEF
# Description: Topoisomerase I Activity (In Vitro)
# Topoisomerase I activity was measured as described below: The procedure for assaying compound-induced, topoisomerase I-mediated single strand breaks in DNA was essentially that described by Hsiang, et al., (J. Biol Chem. 1985, 260, 14873-14878). Samples dissolved in 100% DMSO as either 10 μM or 10 mg/ml solutions, unless otherwise stated, were diluted in Tris-EDTA buffer. Marine bacteriophage PM2 DNA (Boehringer Mannheim) was also diluted in Tris-EDTA buffer to a concentration of 0.02 μg/μl. Different dilutions of the compound being evaluated were mixed with diluted DNA and this mixture was added to 1000 unit (one unit of enzyme activity is defined as the amount capable of relaxing 100 ng of supercoiled DNA in approximately 30 minutes at 37° C.) aliquots of purified human topoisomerase I (Topogen) in 2× reaction buffer to start the reaction. The compound-DNA-enzyme mixture was incubated for 30 minutes at 37° C. before stopping the reaction with warm stop buffer containing sodium dodecyl sulfate and proteinase K (Sigma). These mixtures were allowed to incubate at 37° C. for another 10 minutes, at which time the mixtures were removed from the waterbath and extracted with a 24:1 mixture of chloroform/isoamyl alcohol. Following centrifugation, aliquots of the aqueous phases were placed in wells of a 0.9% agarose (SeaKem) gel in Tris-borate buffer containing 0.5 μg/ml of ethidium bromide and subjected to electrophoresis for 15 hours to separate the different topological isomers and nicked and broken DNAs. After destaining the gel in water, the ethidium bromide stained DNA reaction products were visualized by exposing the gel to UV irradiation. Negatives of the photographs of the irradiated gels were scanned with a densitometer and areas under the peaks were calculated in order to obtain percent single strand DNA break formation for each sample. A median effective concentration (EC50) was obtained for each compound by interpolation between points of the resulting dose-effect curve which defines the potency of the compound for its effect in inducing topoisomerase I-mediated single strand breaks in DNA.
# The topoisomerase I activity for certain compounds of the present invention is shown below in Table I.
# [2] = test system: murine P388 cell line; test: In vitro cell-based cytotoxicity: proliferation inhibition, XTT tetrazolium assay; settings: Mus musculus; P388 cells, 72 h at 37° C., XTT absorbance at 450 nm; read-out: IC50 (drug concentration required to inhibit cell proliferation to 50% of untreated control cells)
# Description: In Vitro Cell-Based Cytotoxicity Activity
# The proliferation inhibition activity against murine P388 cell line was measured as follows. Evaluation of a soluble tetrazolium/formazan assay for cell growth and drug sensitivity in culture, using human and other tumor cell lines, was done according to the procedure described in Cancer Res. 1988, 48, 4827-4833. Cells were plated at 4000 cells/well in 96 well microtiter plates and 24 h later drugs were added and serially diluted. The cells were incubated at 37° C. for 72 h, at which time a tetrazolium dye, XTT, containing phenazine methosulfate was added. A dehydrogenase enzyme in live cells reduced the XTT to a form that absorbs light at 450 nm, which could be quantitated spectrophotometrically. The greater the absorbance the greater the number of live cells. The results are expressed as an IC50, which is the drug concentration required to inhibit cell proliferation (i.e., absorbance at 450 nm) to 50% of that of untreated control cells.
compound,measurement,setting,value
"O=C1NC(=O)c2c1c1c3ccc(F)cc3n3c1c1c2c2ccc(F)cc2n1[C@@H]1O[C@H](CO)[C@@H](O)[C@H](O)[C@@H]13 [Example 24, 2,10-Difluoro-12,13-[1,2-β-D-glucopyranosyl]-6,7,12,13-tetrahydro(5H)-indolo-[2,3-a]pyrrolo[3,4-c]carbazole-5,7-dione]",melting point,,> 300 °C
same,EC50,[1],> 100000 nM
same,IC50,[2],1150 nM
